Measurements: patent EP1604976A1 (Advance Holdings Limited, priority 2004, dated 2005)
In brackets after ≈: the same amount, converted by molar mass.

How the values were obtained:
[1] = stability of product of Formula (I) in aqueous solution / acid medium; format: physicochemical
[2] = water solubility of products of Formula (I)
COX-2 = COX-2 (Homo sapiens, UniProt P35354); conditions: Famaey 1997; Cullen et al. 1998; cited from earlier work
COX-2, sequence (P35354 18-604): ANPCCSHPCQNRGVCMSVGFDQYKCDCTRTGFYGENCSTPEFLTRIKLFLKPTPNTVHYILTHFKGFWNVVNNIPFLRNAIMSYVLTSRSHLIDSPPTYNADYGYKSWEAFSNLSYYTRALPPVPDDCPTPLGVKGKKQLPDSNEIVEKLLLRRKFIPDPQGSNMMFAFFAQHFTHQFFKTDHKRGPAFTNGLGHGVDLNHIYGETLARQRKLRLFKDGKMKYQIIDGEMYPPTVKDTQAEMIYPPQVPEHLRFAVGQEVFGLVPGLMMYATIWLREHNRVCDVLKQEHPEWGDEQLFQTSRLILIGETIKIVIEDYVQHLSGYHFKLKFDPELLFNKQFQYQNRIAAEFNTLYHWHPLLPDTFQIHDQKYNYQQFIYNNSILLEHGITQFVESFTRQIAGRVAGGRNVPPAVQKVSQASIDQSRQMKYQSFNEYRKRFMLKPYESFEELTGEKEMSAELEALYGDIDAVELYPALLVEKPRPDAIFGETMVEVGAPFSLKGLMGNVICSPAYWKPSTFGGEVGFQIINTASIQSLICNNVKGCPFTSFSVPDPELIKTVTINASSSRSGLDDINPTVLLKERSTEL

Structure (SMILES): CS(=O)(=O)N(c1ccc([N+](=O)[O-])cc1Oc1ccccc1)S(=O)(=O)O [Product I in which X is Na]
- effect of acidification of the solution ([1]; acidification to about pH 2 with HCl): decomposition of the product and precipitation of the theoretical quantity of nimesulide
- stability of the aqueous solution ([1]; approximately 3.5 wt.% aqueous solution, room temperature, seventh day): still stable on the seventh day
- solubility [2]: ~35 mg/mL (≈ 90.1 mM)

Structure (SMILES): CS(=O)(=O)N(c1ccc([N+](=O)[O-])cc1Oc1ccccc1)S(=O)(=O)O [acid form (X = H)]
- stability of the acid form ([1]; especially in an acid medium): rather unstable

Structure (SMILES): CS(=O)(=O)Nc1ccc([N+](=O)[O-])cc1Oc1ccccc1 [nimesulide]
- COX-2 versus COX-1 inhibition preference (COX-2): inhibit preferentially COX-2 more than COX-1
